According to patent US20180201592A1, “2-AMINO-1,3,4-THIADIAZINE AND 2-AMINO-1,3,4-OXADIAZINE BASED ANTIFUNGAL AGENTS” (F2G Limited, priority 2015, published 2018):

How the values were obtained:
Conditions in all cases: banded MIC grade
Aspergillus terreus = assay: Minimum inhibitory concentration, YAG medium; assay type: cell-based
In short: (§1)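 Growth inhibition was read as absorbance at 485 nm after spores of Aspergillus spp. were exposed for 24 hrs at 35° C to doubling dilutions of the compound. Dilutions were made in water starting from a 5 mg/mL DMSO stock, and MIC values were expressed in mg/L.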

Aspergillus flavus = assay: Minimum inhibitory concentration, YAG medium; assay type: cell-based
In short: as §1

Aspergillus niger = assay: Minimum inhibitory concentration, YAG medium; assay type: cell-based
In short: as §1

A. fumigatus = assay: Minimum inhibitory concentration, RPMI medium; assay type: cell-based
In short: (§2)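 Broth microdilution in RPMI 1640 (2% glucose, 0.135 M MOPS, pH 7.0) at 1-2×10^4 cfu/mL, testing 50-0.05 mg/L in doubling steps. After 24-48 hrs at 35° C, OD at 485 nm was read, and the MIC was taken as the lowest drug level suppressing growth by >80% relative to drug-free wells.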

A. fumigatus 210 [1] = assay: Minimum inhibitory concentration, RPMI medium; assay type: cell-based
In short: as §2

A. fumigatus 210 [2] = assay: Minimum inhibitory concentration, YAG medium; assay type: cell-based, Aspergillus fumigatus
In short: (§3)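 Testing uses spores harvested after 5 days on Sabouraud agar, grown 24 hrs at 35° C in glucose/ammonium chloride/yeast extract (YAG) medium against twofold drug dilutions. Optical density at 485 nm defines MIC as >70% growth reduction compared with drug-free wells.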

C. tropicalis = assay: Minimum inhibitory concentration, RPMI medium; assay type: cell-based
In short: (§4)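 Growth inhibition was judged from optical density at 485 nm per well after 24-48 hrs at 35° C. Test compound came from a 5 mg/mL DMSO stock, serially doubled in water before testing in RPMI 1640.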

A. terreus = assay: Minimum inhibitory concentration, RPMI medium; assay type: cell-based
In short: as §4

C. parapsilosis = assay: Minimum inhibitory concentration, RPMI medium; assay type: cell-based
In short: as §4

A. flavus = assay: Minimum inhibitory concentration, RPMI medium; assay type: cell-based
In short: as §4

A. terreus 49 [3] = assay: Minimum inhibitory concentration, RPMI medium; assay type: cell-based
In short: as §4

A. niger = assay: Minimum inhibitory concentration, RPMI medium; assay type: cell-based
In short: as §4

C. glabrata = assay: Minimum inhibitory concentration, RPMI medium; assay type: cell-based
In short: as §4

C. krusei = assay: Minimum inhibitory concentration, RPMI medium; assay type: cell-based
In short: as §4

C. albicans = assay: Minimum inhibitory concentration, RPMI medium; assay type: cell-based
In short: as §4

Aspergillus fumigatus = assay: Minimum inhibitory concentration, YAG medium; assay type: cell-based
In short: as §3

A. terreus 49 [4] = assay: Minimum inhibitory concentration, YAG medium; assay type: cell-based, Aspergillus terreus
In short: as §1

Compound	MIC grade, A. TERREUS, YAG media (Aspergillus terreus)	MIC grade, A. FLAVUS, YAG media (Aspergillus flavus)	MIC grade, A. NIGER, YAG media (Aspergillus niger)	MIC grade, A. FUMIGATUS, RPMI media (A. fumigatus)	MIC grade, A. FUMIGATUS 210, RPMI media (A. fumigatus 210 [1])	MIC grade, A. FUMIGATUS 210, YAG media (A. fumigatus 210 [2])	MIC grade, C. TROPICALIS, RPMI media (C. tropicalis)	MIC grade, A. TERREUS, RPMI media (A. terreus)	MIC grade, C. PARAPSILOSIS, RPMI media (C. parapsilosis)	MIC grade, A. FLAVUS, RPMI media (A. flavus)	MIC grade, A. TERREUS 49, RPMI media (A. terreus 49 [3])	MIC grade, A. NIGER, RPMI media (A. niger)	MIC grade, C. GLABRATA, RPMI media (C. glabrata)	MIC grade, C. KRUSEI, RPMI media (C. krusei)	MIC grade, C. ALBICANS, RPMI media (C. albicans)	MIC grade, A. FUMIGATUS, YAG media (Aspergillus fumigatus)	MIC grade, A. TERREUS 49, YAG media (A. terreus 49 [4])
CCc1ccc(OCCCCC2=NN=C(N)SC2)cc1	4 (4: <0.2 mg/L)	4 (4: <0.2 mg/L)	3 (3: 0.2-1 mg/L)	2 (2: 5-20 mg/L)	2 (2: 5-20 mg/L)	3 (3: 0.2-1 mg/L)	4 (4: <1 mg/L)	3 (3: 1-5 mg/L)	4 (4: <1 mg/L)	2 (2: 5-20 mg/L)	2 (2: 5-20 mg/L)	2 (2: 5-20 mg/L)	2 (2: 5-20 mg/L)	4 (4: <1 mg/L)	4 (4: <1 mg/L)	3 (3: 0.2-1 mg/L)	4 (4: <0.2 mg/L)
NC1=NN=C(CCCCOCc2cccc(Cl)c2)CS1	4 (4: <0.2 mg/L)	4 (4: <0.2 mg/L)	4 (4: <0.2 mg/L)	4 (4: <1 mg/L)	2 (2: 5-20 mg/L)	4 (4: <0.2 mg/L)	4 (4: <1 mg/L)	3 (3: 1-5 mg/L)	4 (4: <1 mg/L)	4 (4: <1 mg/L)	3 (3: 1-5 mg/L)	3 (3: 1-5 mg/L)	3 (3: 1-5 mg/L)	4 (4: <1 mg/L)	4 (4: <1 mg/L)	4 (4: <0.2 mg/L)	4 (4: <0.2 mg/L)
NC1=NN=C(CCCCOCc2ccc(C(F)(F)F)cc2)CS1	4 (4: <0.2 mg/L)	4 (4: <0.2 mg/L)	4 (4: <0.2 mg/L)	2 (2: 5-20 mg/L)	2 (2: 5-20 mg/L)	4 (4: <0.2 mg/L)	4 (4: <1 mg/L)	3 (3: 1-5 mg/L)	4 (4: <1 mg/L)	3 (3: 1-5 mg/L)	2 (2: 5-20 mg/L)	3 (3: 1-5 mg/L)	2 (2: 5-20 mg/L)	4 (4: <1 mg/L)	4 (4: <1 mg/L)	4 (4: <0.2 mg/L)	4 (4: <0.2 mg/L)
CCCCc1ccc(COCCCCC2=NN=C(N)SC2)cc1	2 (2: 1-5 mg/L)	3 (3: 0.2-1 mg/L)	3 (3: 0.2-1 mg/L)	1 (1: ≥20 mg/L)	1 (1: ≥20 mg/L)	1 (1: ≥5 mg/L)	2 (2: 5-20 mg/L)	1 (1: ≥20 mg/L)	3 (3: 1-5 mg/L)	2 (2: 5-20 mg/L)	1 (1: ≥20 mg/L)	2 (2: 5-20 mg/L)	2 (2: 5-20 mg/L)	3 (3: 1-5 mg/L)	2 (2: 5-20 mg/L)	1 (1: ≥5 mg/L)	2 (2: 1-5 mg/L)
NC1=NN=C(CCCCOCc2ccc(Cl)cc2)CS1	4 (4: <0.2 mg/L)	4 (4: <0.2 mg/L)	4 (4: <0.2 mg/L)	3 (3: 1-5 mg/L)	2 (2: 5-20 mg/L)	4 (4: <0.2 mg/L)	3 (3: 1-5 mg/L)	3 (3: 1-5 mg/L)	4 (4: <1 mg/L)	4 (4: <1 mg/L)	3 (3: 1-5 mg/L)	3 (3: 1-5 mg/L)	3 (3: 1-5 mg/L)	4 (4: <1 mg/L)	4 (4: <1 mg/L)	4 (4: <0.2 mg/L)	4 (4: <0.2 mg/L)
Cc1cccc(COCCCCC2=NN=C(N)SC2)c1	3 (3: 0.2-1 mg/L)	3 (3: 0.2-1 mg/L)	3 (3: 0.2-1 mg/L)	3 (3: 1-5 mg/L)	2 (2: 5-20 mg/L)	3 (3: 0.2-1 mg/L)	3 (3: 1-5 mg/L)	2 (2: 5-20 mg/L)	3 (3: 1-5 mg/L)	3 (3: 1-5 mg/L)	2 (2: 5-20 mg/L)	2 (2: 5-20 mg/L)	2 (2: 5-20 mg/L)	3 (3: 1-5 mg/L)	3 (3: 1-5 mg/L)	3 (3: 0.2-1 mg/L)	3 (3: 0.2-1 mg/L)
NC1=NN=C(CCCCCOc2ccccn2)CS1	4 (4: <0.2 mg/L)	4 (4: <0.2 mg/L)	4 (4: <0.2 mg/L)	4 (4: <1 mg/L)	3 (3: 1-5 mg/L)	4 (4: <0.2 mg/L)	4 (4: <1 mg/L)	4 (4: <1 mg/L)	4 (4: <1 mg/L)	4 (4: <1 mg/L)	4 (4: <1 mg/L)	4 (4: <1 mg/L)	3 (3: 1-5 mg/L)	4 (4: <1 mg/L)	4 (4: <1 mg/L)	4 (4: <0.2 mg/L)	4 (4: <0.2 mg/L)
